Experimental data from patent publication US20090221642A1, “MUSCARINIC RECEPTOR AGONISTS, COMPOSITIONS, METHODS OF TREATMENT THEREOF, AND PROCESSES FOR PREPARATION THEREOF-176” (AstraZeneca AB, priority 2008, published 2009).
Read-outs that look alike come from different tables or passages of the source.

Key:
[1] = biological target: T1, hM1 (human Muscarinic receptor subtype 1) (Homo sapiens, UniProt P11229); assay: Human M1 calcium mobilization FLIPR assay; assay type: cell-based; details: hM1 expressed in CHO cells, intracellular Ca2+ release
T1 construct: expressed in transfected cells; host or cells: CHO cells (Chinese hamster ovary cells, ATCC)
T1 sequence (P11229 1-460): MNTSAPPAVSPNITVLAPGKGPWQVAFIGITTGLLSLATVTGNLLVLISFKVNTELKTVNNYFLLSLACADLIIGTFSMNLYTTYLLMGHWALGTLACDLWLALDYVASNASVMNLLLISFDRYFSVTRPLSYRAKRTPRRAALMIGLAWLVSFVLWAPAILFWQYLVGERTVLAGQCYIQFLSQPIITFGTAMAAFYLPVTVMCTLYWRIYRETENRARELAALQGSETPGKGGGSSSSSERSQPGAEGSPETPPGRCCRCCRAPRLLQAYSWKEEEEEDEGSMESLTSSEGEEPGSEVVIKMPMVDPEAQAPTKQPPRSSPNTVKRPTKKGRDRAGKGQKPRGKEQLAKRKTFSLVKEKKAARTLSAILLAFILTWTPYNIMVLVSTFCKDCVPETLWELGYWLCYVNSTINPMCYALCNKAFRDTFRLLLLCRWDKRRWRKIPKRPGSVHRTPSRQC
Method in brief: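 CHO cells expressing the receptor, dye-loaded at 37°C for 60 min, read on FLIPR at 510-570 nm. Agonism taken from compound-induced Ca2+ rise (max RFU for M1); M3/M5 inhibition measured against 2 nM acetylcholine using max minus min RFU. 10-point threefold dilutions, sigmoidal fits.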

[2] = biological target: T2, cloned human M2 receptor (human Muscarinic receptor subtype 2) (Homo sapiens, UniProt P08172); assay: hM2 receptor GTPγS binding; assay type: biochemical; details: CHO cell membranes expressing hM2, [35S]GTPγS binding
T2 construct: purchased Perkin-Elmer RBHM2M; host or cells: Chinese hamster ovary cells (CHO) membranes
T2 sequence (P08172 1-466): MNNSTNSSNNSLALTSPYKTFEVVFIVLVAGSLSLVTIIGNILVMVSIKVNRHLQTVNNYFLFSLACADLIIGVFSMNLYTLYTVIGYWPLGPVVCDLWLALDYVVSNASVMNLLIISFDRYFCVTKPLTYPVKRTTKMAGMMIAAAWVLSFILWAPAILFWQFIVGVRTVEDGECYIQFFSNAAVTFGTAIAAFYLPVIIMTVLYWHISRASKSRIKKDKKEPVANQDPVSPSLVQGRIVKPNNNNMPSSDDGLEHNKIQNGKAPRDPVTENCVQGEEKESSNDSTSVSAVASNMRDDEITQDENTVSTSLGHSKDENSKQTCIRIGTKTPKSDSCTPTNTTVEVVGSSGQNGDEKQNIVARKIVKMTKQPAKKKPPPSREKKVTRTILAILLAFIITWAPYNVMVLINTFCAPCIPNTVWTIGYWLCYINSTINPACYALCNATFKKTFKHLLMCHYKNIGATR
Protocol: hM2 Receptor GTPγS Binding
Membranes produced from Chinese hamster ovary cells (CHO) expressing the cloned human M2 receptor (human Muscarinic receptor subtype 2, gene bank access NM_000739), are obtained from Perkin-Elmer (RBHM2M). The membranes are thawed at 37° C., passed 3 times through a 23-gauge blunt-end needle, diluted in the GTPγS binding buffer (50 mM Hepes, 20 mM NaOH, 100 mM NaCl, 1 mM EDTA, 5 mM MgCl2, pH 7.4, 100 μM DTT). The EC50, IC50 and Emax of the compounds of the invention are evaluated from 10-point dose-response curves (three fold concentration range) done in 60 μl in 384-well non-specific binding surface plate (Corning). Ten microliters from the dose-response curves plate (5× concentration) are transferred to another 384 well plate containing 25 μl of the following: 5 μg of hM2 membranes, 500 μg of Flashblue beads (Perkin-Elmer) and GDP 25 μM. An additional 15 μl containing 3.3× (60,000 dpm) of GTPγ^35S (0.4 nM final) are added to the wells resulting in a total well volume of 50 μl. Basal and maximal stimulated [^35S]GTPγS binding are determined in absence and presence of 30 μM final of acetylcholine agonist. The membranes/beads mix are pre-incubated for 15 minutes at room temperature with 25 μM GDP prior to distribution in plates (12.5 μM final). The reversal of acetylcholine-induced stimulation (2 μM final) of [^35S]GTPγS binding is used to assay the antagonist properties (IC50) of the compounds. The plates are incubated for 60 minutes at room temperature then centrifuged at 400 rpm for 5 minutes. The radioactivity (cpm) is counted in a Trilux (Perkin-Elmer).
Values of EC50, IC50 and Emax are obtained using sigmoidal fits of a non-linear curve-fitting program (XLfit version 4.2.2 Excel add-in version 4.2.2 build 18 math 1Q version 2.1.2 build 18) of percent stimulated [^35S]GTPγS binding vs. log(molar ligand). All pEC50 and plC50 values are reported as arithmetic means ±standard error of mean of ‘n’ independent experiments.

SMILES | EC50 ([1]; read-out: hM1 EC50) [nM] | EC50 ([2]; read-out: hM2 EC50) [nM] | EC50 ([1]; hM1 EC50 (nM)) [nM] | EC50 ([2]; hM2 EC50 (nM)) [nM]
Cc1ccc2c(c1)[nH]c(=O)n2C1CCN(C2(C)CCN(C(=O)OCCF)C2)CC1 (single isomer, unassigned) [Example 27, 2-fluoroethyl 3-methyl-3-(4-(5-methyl-2-oxo-2,3-dihydro-1H-benzo[d]imidazol-1-yl)piperidin-1-yl)pyrrolidine-1-carboxylate] | 10.8 | 620 |  | 
COC(=O)N1CCC(C)(N2CCC(N3C(=O)Cc4ccc(C)cc43)CC2)C1 (single isomer, unassigned) [Example 67, methyl 3-methyl-3-(4-(6-methyl-2-oxoindolin-1-yl)piperidin-1-yl)pyrrolidine-1-carboxylate] | 20.9 | 4650 |  | 
COC(=O)N1CCC(C)(N2CCC(n3c(=O)[nH]c4ccccc43)CC2)C1 (racemic) [Example 2, methyl 3-methyl-3-(4-(2-oxo-2,3-dihydro-1H-benzo[d]imidazol-1-yl)piperidin-1-yl)pyrrolidine-1-carboxylate] | 13 | 865 |  | 
Cc1ccc2[nH]c(=O)n(C3CCN(C4(C)CCN(C(=O)OC(C)C)C4)CC3)c2c1 (single isomer, unassigned) [Example 39, isopropyl 3-methyl-3-(4-(6-methyl-2-oxo-2,3-dihydro-1H-benzo[d]imidazol-1-yl)piperidin-1-yl)pyrrolidine-1-carboxylate] | 26.7 | > 12800 |  | 
C#CCOC(=O)N1CCC(C)(N2CCC(n3c(=O)[nH]c4ccc(C)cc43)CC2)C1 (single isomer, unassigned) [Example 43, prop-2-ynyl 3-methyl-3-(4-(6-methyl-2-oxo-2,3-dihydro-1H-benzo[d]imidazol-1-yl)piperidin-1-yl)pyrrolidine-1-carboxylate] | 2.5 | 109 |  | 
CC1(N2CCC(n3c(=O)[nH]c4ccccc43)CC2)CCN(C(=O)OCCF)C1 (racemic) [Example 4, 2-fluoroethyl 3-methyl-3-(4-(2-oxo-2,3-dihydro-1H-benzo[d]imidazol-1-yl)piperidin-1-yl)pyrrolidine-1-carboxylate] | 13.5 | 1860 |  | 
C#CCOC(=O)N1CCC(C)(N2CCC(n3c(=O)[nH]c4cc(F)ccc43)CC2)C1 (single isomer, unassigned) [Example 36, prop-2-ynyl 3-(4-(5-fluoro-2-oxo-2,3-dihydro-1H-benzo[d]imidazol-1-yl)piperidin-1-yl)-3-methylpyrrolidine-1-carboxylate] | 32 | 1560 |  | 
COC(=O)N1CCC(C)(N2CCC(n3c(=O)[nH]c4cc(F)c(F)cc43)CC2)C1 (single isomer, unassigned) [Example 60, methyl 3-(4-(5,6-difluoro-2-oxo-2,3-dihydro-1H-benzo[d]imidazol-1-yl)piperidin-1-yl)-3-methylpyrrolidine-1-carboxylate] | 13.5 | 1030 |  | 
COC(=O)N1CCC(C)(N2CCC(n3c(=O)[nH]c4cc(F)ccc43)CC2)C1 (single isomer, unassigned) [Example 23, methyl 3-(4-(5-fluoro-2-oxo-2,3-dihydro-1H-benzo[d]imidazol-1-yl)piperidin-1-yl)-3-methylpyrrolidine-1-carboxylate] | 9.4 | 668 |  | 
C#CCOC(=O)N1CCC(C)(N2CCC(n3c(=O)[nH]c4cc(C)ccc43)CC2)C1 (single isomer, unassigned) [Example 44, prop-2-ynyl 3-methyl-3-(4-(5-methyl-2-oxo-2,3-dihydro-1H-benzo[d]imidazol-1-yl)piperidin-1-yl)pyrrolidine-1-carboxylate] | < 2.3 | 26 |  | 
CCOC(=O)N1CCC(C)(N2CCC(n3c(=O)[nH]c4cc(F)c(F)cc43)CC2)C1 (single isomer, unassigned) [Example 58, ethyl 3-(4-(5,6-difluoro-2-oxo-2,3-dihydro-1H-benzo[d]imidazol-1-yl)piperidin-1-yl)-3-methylpyrrolidine-1-carboxylate] | 17.7 | 2100 |  | 
CC1(N2CCC(n3c(=O)[nH]c4ccc(F)cc43)CC2)CCN(C(=O)OCCF)C1 (single isomer, unassigned) [Example 53, 2-fluoroethyl 3-(4-(6-fluoro-2-oxo-2,3-dihydro-1H-benzo[d]imidazol-1-yl)piperidin-1-yl)-3-methylpyrrolidine-1-carboxylate] | 11.5 | 1620 |  | 
CCOC(=O)N1CCC(C)(N2CCC(n3c(=O)[nH]c4cc(F)c(F)cc43)CC2)C1 (single isomer, unassigned) [Example 57, ethyl 3-(4-(5,6-difluoro-2-oxo-2,3-dihydro-1H-benzo[d]imidazol-1-yl)piperidin-1-yl)-3-methylpyrrolidine-1-carboxylate] | 2.6 | 428 |  | 
Cc1ccc2[nH]c(=O)n(C3CCN(C4(C)CCN(C(=O)OCCF)C4)CC3)c2c1 (single isomer, unassigned) [Example 26, 2-fluoroethyl 3-methyl-3-(4-(6-methyl-2-oxo-2,3-dihydro-1H-benzo[d]imidazol-1-yl)piperidin-1-yl)pyrrolidine-1-carboxylate] | 7.8 | 146 |  | 
CCOC(=O)N1CCC(C)(N2CCC(n3c(=O)[nH]c4cc(F)c(C)cc43)CC2)C1 (single isomer, unassigned) [Example 56, ethyl 3-(4-(5-fluoro-6-methyl-2-oxo-2,3-dihydro-1H-benzo[d]imidazol-1-yl)piperidin-1-yl)-3-methylpyrrolidine-1-carboxylate] | 3.5 | 24 |  | 
Cc1ccc2[nH]c(=O)n(C3CCN(C4(C)CCN(C(=O)OCCF)C4)CC3)c2c1 (single isomer, unassigned) [Example 28, 2-fluoroethyl 3-methyl-3-(4-(6-methyl-2-oxo-2,3-dihydro-1H-benzo[d]imidazol-1-yl)piperidin-1-yl)pyrrolidine-1-carboxylate] | 10 | 2400 |  | 
CC1(N2CCC(n3c(=O)[nH]c4cc(F)ccc43)CC2)CCN(C(=O)OCCF)C1 (stereo not drawn) [Example 10, 2-fluoroethyl 3-(4-(5-fluoro-2-oxo-2,3-dihydro-1H-benzo[d]imidazol-1-yl)piperidin-1-yl)-3-methylpyrrolidine-1-carboxylate] | 26.3 | 2140 |  | 
COC(=O)N1CCC(C)(N2CCC(N3C(=O)Cc4cc(F)c(C)cc43)CC2)C1 (single isomer, unassigned) [Example 84, methyl 3-(4-(5-fluoro-6-methyl-2-oxoindolin-1-yl)piperidin-1-yl)-3-methylpyrrolidine-1-carboxylate] |  |  | 7.7 | 684
